From ChEMBL document CHEMBL1137985, “Synthesis and enzymatic evaluation of xanthine oxidase-activated prodrugs based on inhibitors of thymidine phosphorylase” (Bioorg Med Chem Lett, 2004)
Structures can show the parent of a compound that is named as a salt.

Experiments:
Thymidine phosphorylase [1] = molecular target: T1, Thymidine phosphorylase (Escherichia coli K-12, UniProt P07650); assay: Inhibition of Thymidine phosphorylase from Escherichia coli; no inhibition at 47.2 uM
Thymidine phosphorylase [2] = molecular target: T1, Thymidine phosphorylase; assay: Inhibition of Thymidine phosphorylase from Escherichia coli; no inhibition at 148 uM
Thymidine phosphorylase [3] = molecular target: T1, Thymidine phosphorylase
Thymidine phosphorylase [4] = molecular target: T1, Thymidine phosphorylase; assay: Inhibition of Thymidine phosphorylase from Escherichia coli; no inhibition at 207 uM
Thymidine phosphorylase [5] = molecular target: T1, Thymidine phosphorylase; assay: Inhibition of Thymidine phosphorylase from Escherichia coli; no inhibition at 213 uM
Thymidine phosphorylase [6] = molecular target: T1, Thymidine phosphorylase; assay: Inhibition of Thymidine phosphorylase from Escherichia coli; no inhibition at 137 uM

T1 sequence (P07650 whole entry): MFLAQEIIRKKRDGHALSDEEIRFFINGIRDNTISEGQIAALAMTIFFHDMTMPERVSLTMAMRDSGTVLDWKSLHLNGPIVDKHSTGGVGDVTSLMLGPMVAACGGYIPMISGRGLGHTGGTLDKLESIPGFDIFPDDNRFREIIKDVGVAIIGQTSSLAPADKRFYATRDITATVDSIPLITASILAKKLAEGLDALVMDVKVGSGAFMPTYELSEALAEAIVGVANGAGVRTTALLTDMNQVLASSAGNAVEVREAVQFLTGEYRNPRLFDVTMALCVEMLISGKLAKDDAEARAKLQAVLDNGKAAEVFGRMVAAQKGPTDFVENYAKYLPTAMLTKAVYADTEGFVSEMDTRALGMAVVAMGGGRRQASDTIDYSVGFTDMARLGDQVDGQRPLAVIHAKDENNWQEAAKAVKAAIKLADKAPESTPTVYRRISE

Cl.N=C1CCCN1Cc1nc[nH]c(=O)c1Cl
IC50 (Thymidine phosphorylase [1]): No inhibition

O=c1ncc2cc[nH]c2[nH]1
IC50 (Thymidine phosphorylase [2]): No inhibition

O=c1[nH]cnc2[nH]ccc12
IC50 (Thymidine phosphorylase [4]): No inhibition

Nc1ncncc1Br
IC50 (Thymidine phosphorylase [5]): No inhibition

Nc1nc[nH]c(=O)c1Br
IC50 (Thymidine phosphorylase [2]): No inhibition

Nc1[nH]c(=O)ncc1Br
IC50 (Thymidine phosphorylase [6]): No inhibition
